In US4968686A, “Acyclic pyrrolo [2,3-d]pyrimidine analogs as antiviral agents” (The Regents of The University of Michigan, priority 1989, dated 1990):

Assays:
[1] = tested on: KB cells; test: cells; assay type: cell-based, human; settings: Homo sapiens; [3H]dThd incorporation, KB cells; read-out: I50 on [3H]dThd incorporation
Procedure: (§1) KB or HFF cells were planted using a Costar Transplate-96 (Costar, Cambridge, Mass.) in Costar 96-well cluster dishes at a concentration of 10,000 to 12,000 cells per well. Wells were suspended in 200 μl of medium [MDM(H) plus 0.7 gm/liter NaCHO3 supplemented with 10% calf serum] per well. After incubation of 16 to 24 hours at 37° C. in a humidified atmosphere of 4% CO2 in air, […] of medium was removed per well. One-hundred μl of medium with or without compounds in twice their final concentrations was added to each well using a Titertek Multichannel Pipette. Final concentrations of compounds ranged from 0.1 to 320 μM. Fifty μl of medium containing radioactive precursors also was added to each well to give a final concentration to 1 to 3 μCi/ml of labeled precursor. [^3 H]Thd was diluted with unlabeled dThd to give a final concentration of 3 or 6 μM.
(§2) Logarithmic cell growth occurred during this time with continual uptake of labeled precursors. At the end of the incubation period, cells were individually harvested from each well using a Skatron Cell harvester (Skatronh, Inc., Sterling, Va.). Cultures for individual wells were harvested onto filter paper and washed free of unincorporated label with nine sequential washes with 5% trichloroacetic acid, nine washes with water, and nine with ethanol using the Skatron unit. Filters were dried, circles from individual cultures were punched from the filter mat and placed into mini-vials. Liquid scintillation solution was added, and radioactivity determined in a Beckman model LS8100 liquid scintillation spectrometer. All samples were counted for 2.0 minutes each, with three rounds of counting. Counts per minute were determined following the application of statistical methods to eliminate count rates which fell outside distribution limits defined by Chauvenet's rejection criterion.
(§3) All analyses were performed in triplicate. That is, three culture wells were used per time point, radioactive precursor, and drug concentration in all experiments. Results from triplicate assays were converted to percent of control and plotted as log dose-response curves from which 50% inhibitor (I50) concentrations were interpolated. Three concentrations of vidarabine were included on all plates as a positive control.
(§4) Dose-response relationships were used to compare drug effects. These were constructed by linearly regressing the percent inhibition of parameters derived in the preceding sections against log drug concentrations. The 50% inhibitory (I50) concentrations were calculated from the regression lines using the methods described by Goldstein. See Goldstein, A., Biostatistics: An Introductory Text, MacMillan, N.Y., 1964, pp. 156-161. Along with the I50 concentration for visual cytotoxicity, the averaged I50 concentrations are compared to I50 concentrations for inhibition for HCMV or HSV-1 replication. Compounds for which the ratio of cytotoxicity I50 concentrations to antiviral I50 concentrations (in vitro therapeutic index) were greater than 10, were considered for further study.

[2] = in vitro; assay type: cell-based, human; settings: human, kb cells
Procedure: as §1, §2, §3, §4

[3] = tested on: HCMV; test: HCMV titer (yield) reduction assay; assay type: cell-based; settings: Human betaherpesvirus 5; for IC90: Table 1, I90, HFF cells, read-out: HCMV Yield, 90% inhibitory concentration (I90)
From the text: (§5) The 148 strain of HSV-1 was used in most experiments and was provided by Dr. T. W. Schafer of Schering corporation. The HF strain of HSV-1 was used in selected experiments and was obtained from Dr. G. H. Cohen, University of Pennsylvania. The Towne strain, plaque-purified isolate Po, of HCMV was a gift of Dr. Mark Stinski, University of Iowa.
(§6) HCMV was titered in 24-well cluster dishes which were planted to contain 5×10^4 cells/well, grown as described above. When the cells were 70 to 80% confluent, 0.2 ml of the virus suspension was added per wall and adsorbed as described above. At least three ten-fold dilutions of each preparation were used. Following virus adsorption, the cell sheets were overlayed with 0.5% methocel (4000 CPS) in maintenance medium [MEM(E) with 1.1 gm/liter NaHCO3, 100 units/ml penicillin G, 100 μg/ml streptomycin, and 5% fetal bovine serum]. The cultures were incubated in a humidified atmosphere of 4% CO2 -96% air. Viral foci were visible 5 to 7 days after infection using at least 10-fold magnification. Cells were fixed and stained by a 10-minute exposure to a 0.1% solution of crystal violet in 20% methanol 7 to 12 days after infection. Microscopic foci were enumerated at 20-fold magnification using a Nikon Profile Projector.
(§7) For titer reduction analysis, HFF cells were planted as described above in 24-well cluster dishes or in 25 cm^2 flasks. When monolayers were approximately 70% confluent, HCMV was added at a m.o.i. of 0.5 p.f.u. per cell and adsorbed as detailed above. Compounds dissolved in growth medium were added in one or one-half logarithm10 dilutions and incubation continued at 37° C. After 7 to 10 days of incubation, culture dishes or flasks were frozen at […] For titer determination, cells were thawed and then subjected to two more cycles of freezing and thawing at 37° C. Serial, one-logarithm10 dilutions of the final suspension were prepared and inoculated onto new cultures of HFF cells. Titer determination was as detailed above in part (1) (b).
as §4

[4] = Visual cytotoxicity scoring in BSC-1 cells; assay type: cell-based; settings: african green monkey, Table 1, at time of HSV-1 plaque enumeration, read-out: 50% Inhibitory Concentration Cytotoxicity BSC (visual)
From the text: (§8) Cytotoxicity produced in HFF and BSC-1 cells was estimated by visual scoring of cells not affected by virus infection in the HCMV and HSV-1 plaque reduction assays. Cytopathology was estimated at 35- and 60-fold magnification and scored on a zero to four plus basis. Wells were scored on the day of staining.
as §4

[5] = tested on: HCMV; test: HCMV titer, plaque or yield reduction; assay type: cell-based, human cytomegalovirus (Towne strain) in HFF cells
From the text: as §5, §6
(§9) The effect of compounds of the replication of HCMV has been measured using both a plaque (focus) reduction assay and a titer (yield) reduction assay. For the former, HFF cells in 24-well culture dishes were infected with approximately 50 p.f.u. of HCMV per well using the procedures detailed above. Compounds dissolved in growth medium were added in three to six selected concentrations to triplicate wells following virus adsorption. Following incubation at 37° C. for 7 to 10 days, cell sheets were fixed, stained and microscopic foci were enumerated as described above. Drug effects were calculated as a percentage of reduction in number of foci in the presence of each drug concentration compared to the number observed in the absence of drug. DHPG (ganciclovir) was used as a positive control in all experiments.
as §7, §4

[6] = tested on: HSV-1; test: HSV-1 plaque reduction assay, strain S148; assay type: cell-based, herpes simplex virus type 1 (strain S148) in BSC-1 cells; settings: Human alphaherpesvirus 1; Table 1; strain S148; BSC-1 cells; read-out: 50% Inhibitory Concentration HSV-1 Plaque
From the text: as §5
HSV-1 was titered using monolayer cultures of BSC-1 cells. Cells were planted at 3×10^5 cells/well using 6-well cluster dishes. MEM(E) supplemented with 10% fetal bovine serum was employed as medium. After 22-24 hours, cells were 90% confluent and were inoculated in triplicate using at least three ten-fold dilutions with 0.2 ml of the virus suspension to be assayed and incubated in a humidified 4% CO2 […] atmosphere for one hour to permit viral adsorption. Following virus adsorption, the cell sheet was overlayed with 5 ml of MEM(E) with 5% serum plus 0.5% methocel (4000 CPS) and incubated an additional two to three days. Cells were fixed and stained with 0.1% crystal violet in 20% methanol and macroscopic plaques enumerated.
Plaque reduction experiments were HSV-1 were performed using monolayer cultures of BSC-1 cells. The assay was performed exactly as described above except that the 0.2 ml virus suspension contained approximately 100 p.f.u. of HSV-1. Compounds to be tested were dissolved in the overlay medium at concentrations usually ranging from 0.1 to 100 μM in half-or-one logarithm10 dilutions. Titer reduction assays were performed by planting KB cells in 25 cm^2 plastic tissue culture flasks 10 to 24 hours prior to infection. At the onset of experiments, logarithmically growing replicate monolayer cultures were 60 to 80% confluent and contained 2.5 to 4.5×10^6 cells/flask. Medium was decanted and the cultures were infected with 2 to 10 p.f.u. of HSV-1 per cell. Virus was contained in 1.0 ml of VGM supplemented with 5% fetal bovine serum. After a 1 hour adsorption period at […], the cell sheet was rinsed twice with 2 ml of VGM without serum to remove unadsorbed virus and 5 ml of VGM containing drugs at three to five selected concentrations added in duplicate. Following an 18- to 22-hour incubation at 37° C., infected monolayers were treated with EDTA-trypsin to suspend the cells; aliquots were removed, subjected to three cycles of freezing and thawing, and stored at -76° C. for subsequent virus assay. Virus was titered on BSC-1 cells as described above.
as §4

[7] = Visual cytotoxicity scoring in HFF cells; assay type: cell-based; settings: human, Table 1, at time of HCMV plaque enumeration, read-out: 50% Inhibitory Concentration Cytotoxicity HFF (visual)
From the text: as §8, §4

[8] = tested on: HCMV; test: HCMV plaque (focus) reduction assay; assay type: cell-based; settings: Human betaherpesvirus 5; Table 1; HFF cells; read-out: 50% Inhibitory Concentration HCMV Plaque
From the text: as §5, §6, §9, §4

[9] = tested on: KB cells; test: Growth of KB cells (population doubling times); assay type: cell-based, human
Procedure: (§10) Population doubling times and cell viability were measured in uninfected HFF and/or KB cells. Cells were planted in replicate 6-well plastic tissue culture dishes or in 25 cm^2 flasks as described above in part 1. Following an incubation period during which cells attached to the substrate, medium was decanted, the cell sheet rinsed once with HBS, and fresh medium added. The medium consisted of MEM(E) with 1.1 gm NaHCO3 /liter and 10% fetal bovine or calf serum plus appropriate log or half-log concentrations of drug. After additional periods of incubation from 1 to 72 hours at 37° C., cells were harvested by means of 0.05% trypsin plus 0.02% EDTA in a HEPES-buffered salt solution. Cells were enumerated using either a Coulter counter or a hemocytometer and viability determining using trypsan blue dye exclusion.
(§11) In more extensive cytotoxicity testing, the halogenated compounds were tested for effects on the growth of KB cells. Populations doubling times were calculated from the logarithmic portions of growth curves and were as follows: […]

[10] = Growth of KB cells (population doubling times); assay type: cell-based, human; settings: human, kb cells; 100 μM; read-out: reduction of KB cell growth rate
Procedure: as §10, §11

[11] = tested on: viruses; settings: cited from earlier work

SMILES | IC90 [3] [µM] | activity against HCMV (in words) [5] | CC50 [7] [µM] | IC50 [8] [µM] | antiviral activity previously reported [11] | other results
NC(=S)c1cn(COCCO)c2ncnc(N)c12 [UMJD 229, 4-Amino-7-(2-hydroxyethoxymethyl)pyrrolo[2,3-d]pyrimidine-5-thiocarboxamide] | 80 | active | 100 | 11 | – | IC50 [1]: 10 µM; CC50 [2]: > 100 µM; CC50 [4]: > 100 µM; IC50 [6]: > 100 µM
NC(=S)c1cn(COC(CO)CO)c2ncnc(N)c12 [UMJD 239, 4-Amino-7-[(1,3-dihydroxy-2-propoxy)methyl]pyrrolo[2,3-d]-pyrimidine-5-thiocarboxamide] | 25 | – | > 100 | 8 | – | IC50 [1]: 28 µM; CC50 [2]: > 100 µM; CC50 [4]: > 100 µM; IC50 [6]: > 100 µM
OCC(CO)OCn1cc(Cl)c2c(NO)ncnc21 [UMJD 328, 4-hydroxylamino-5-chloro-7-[(1,3-dihydroxy-2-propoxy)methyl]pyrrolo[2,3-d]pyrimidine] | 24 | active and nearly as potent as the 4-amino analogs | > 100 | 56 | – | –
OCC(CO)OCn1cc(I)c2c(NO)ncnc21 [UMJD 329, 4-hydroxylamino-5-iodo-7-[(1,3-dihydroxy-2-propoxy)methyl]pyrrolo[2,3-d]pyrimidine] | 3.2 | active and nearly as potent as the 4-amino analogs | > 100 | 18 | – | KB cell growth rate (in words) ([9]; 10 μM): nearly control rates; effect on KB cell growth (in words) ([9]; comparison with UMJD 102 / UMJD 183): considerably lesser effects on cell growth; inhibition at 100 µM [10]: > 50%
Nc1ncnc2c1c(I)cn2COC(CO)CO [UMJD 330, 4-amino-5-iodo-7-[(1,3-dihydroxy-2-propoxy)methyl]-pyrrolo[2,3-d]pyrimidine] | 0.9 | – | > 100 | 3.1 | – | log reduction at 100 µM ([3]; FIG. 2, 10-fold higher concentration than UMJD 183 (10 μM)): 5
NC(=O)c1cn([C@@H]2O[C@H](CO)[C@@H](O)[C@H]2O)c2ncnc(N)c12 [sangivamycin] | – | – | – | – | Broad spectrum antiviral activity | –
N#Cc1cn([C@@H]2O[C@H](CO)[C@@H](O)[C@H]2O)c2ncnc(N)c12 [toyocamycin] | – | – | – | – | Broad spectrum antiviral activity | –
Nc1ncnc2c1ccn2[C@@H]1O[C@H](CO)[C@@H](O)[C@H]1O [tubercidin] | – | – | – | – | Broad spectrum antiviral activity | –
